Measurements as given in US20250228239A1, “MOLECULES HAVING PESTICIDAL UTILITY, AND INTERMEDIATES, COMPOSITIONS, AND PROCESSES, RELATED THERETO” (priority 2024, published 2025).

Assays:
[1] = tested on: Cabbage Looper (Trichoplusia ni, TRIPNI); assay: Bioassays on Cabbage Looper (CL), 128-well diet tray assay; format: in vivo; conditions: Trichoplusia ni; Cabbage Looper; rating class; read-out: CL
Procedure, shortened: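 Test molecule was dissolved in 90:10 acetone-water, applied to artificial diet at 50 μg/cm^2 and allowed to dry. Second-instar larvae were then added, one to five per well, and trays held at 25° C for five to seven days before mortality was scored and averaged.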

[2] = tested on: Beet Armyworm (Spodoptera exigua, LAPHEG); assay: Bioassays on Beet Armyworm (BAW), 128-well diet tray assay; format: in vivo; conditions: Spodoptera exigua; Beet Armyworm; rating class; read-out: BAW
Procedure, shortened: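 Second-instar larvae, one to five per well, were placed on artificial diet surface-treated with 50 μg/cm^2 compound in 90:10 acetone-water, eight wells per treatment. Trays were held 5–7 days at 25 °C, 14:10 light-dark. Percent mortality per well was averaged over eight wells.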

Compound	pest or weed control at 50 µg/cm2 [1]	pest or weed control at 50 µg/cm2 [2]
Cc1cc(NC(=O)[C@H]2[C@H](c3ccc(F)c(C(F)(F)F)c3)C2(Cl)Cl)cc(C(=O)Nc2cc(NC(=O)C(F)(F)F)c(F)cc2F)c1Cl [F1501, 2-Chloro-5-((1R,3R)-2,2-dichloro-3-(4-fluoro-3-(trifluoromethyl)phenyl)cyclopropane-1-carboxamido)-N-(2,4-difluoro-5-(2,2,2-trifluoroacetamido)phenyl)-3-methylbenzamide]	50 to 100%	50 to 100%
CC(=O)Nc1c(F)ccc(NC(=O)c2cc(NC(=O)[C@H]3[C@H](c4cc(Cl)cc(Cl)c4)C3(Cl)Cl)cc(F)c2Cl)c1F [F1502, N-(3-Acetamido-2,4-difluorophenyl)-2-chloro-5-((1R,3R)-2,2-dichloro-3-(3,5-dichlorophenyl)cyclopropane-1-carboxamido)-3-fluorobenzamide]	50 to 100%	50 to 100%
O=C(Nc1ccc(F)c(NC(=O)C2CCO2)c1F)c1cc(NC(=O)[C@H]2[C@H](c3ccc(F)c(C(F)(F)F)c3)C2(Cl)Cl)ccc1Cl (stereo partly drawn) [F1503, N-(3-(2-Chloro-5-((1R,3R)-2,2-dichloro-3-(4-fluoro-3-(trifluoromethyl)phenyl)cyclopropane-1-carboxamido)benzamido)-2,6-difluorophenyl)oxetane-2-carboxamide]	50 to 100%	50 to 100%
CC(=O)Nc1c(F)ccc(NC(=O)c2cc(NC(=O)[C@H]3[C@H](c4cc(Cl)c(Cl)c(Cl)c4)C3(Cl)Cl)cc(F)c2Cl)c1F [F1504, N-(3-Acetamido-2,4-difluorophenyl)-2-chloro-5-((1R,3R)-2,2-dichloro-3-(3,4,5-trichlorophenyl)cyclopropane-1-carboxamido)-3-fluorobenzamide]	50 to 100%	50 to 100%
Nc1c(F)ccc(NC(=O)c2c(Cl)ccc(NC(=O)[C@H]3[C@H](c4ccc(F)c(Cl)c4)C3(Cl)Cl)c2F)c1F [F1508, N-(3-Amino-2,4-difluorophenyl)-6-chloro-3-((1R,3R)-2,2-dichloro-3-(3-chloro-4-fluorophenyl)cyclopropane-1-carboxamido)-2-fluorobenzamide]	50 to 100%	50 to 100%
O=C(Nc1cc(NC(=O)C(F)F)c(F)cc1F)c1cc(NC(=O)[C@H]2[C@H](c3ccc(Cl)c(Cl)c3)C2(Cl)Cl)ccc1F [F1509, 5-((1R,3R)-2,2-Dichloro-3-(3,4-dichlorophenyl)cyclopropane-1-carboxamido)-N-(5-(2,2-difluoroacetamido)-2,4-difluorophenyl)-2-fluorobenzamide]	50 to 100%	50 to 100%
O=C(Nc1c(F)ccc(NC(=O)C(F)F)c1F)c1cc(NC(=O)[C@H]2[C@H](c3ccc(Cl)c(Cl)c3)C2(Cl)Cl)ccc1F [F1512, 5-((1R,3R)-2,2-Dichloro-3-(3,4-dichlorophenyl)cyclopropane-1-carboxamido)-N-(3-(2,2-difluoroacetamido)-2,6-difluorophenyl)-2-fluorobenzamide]	50 to 100%	50 to 100%
O=C(Nc1c(F)ccc(NC(=O)C(F)(F)F)c1F)c1cc(NC(=O)[C@H]2[C@H](c3ccc(Cl)c(Cl)c3)C2(Cl)Cl)ccc1F [F1513, 5-((1R,3R)-2,2-Dichloro-3-(3,4-dichlorophenyl)cyclopropane-1-carboxamido)-N-(2,6-difluoro-3-(2,2,2-trifluoroacetamido)phenyl)-2-fluorobenzamide]	50 to 100%	50 to 100%
CC(=O)Nc1ccc(F)c(NC(=O)c2cc(NC(=O)[C@H]3[C@H](c4ccc(Cl)c(Cl)c4)C3(Cl)Cl)ccc2F)c1F [F1514, N-(3-Acetamido-2,6-difluorophenyl)-5-((1R,3R)-2,2-dichloro-3-(3,4-dichlorophenyl)cyclopropane-1-carboxamido)-2-fluorobenzamide]	50 to 100%	50 to 100%
CC(=O)Nc1ccc(F)c(NC(=O)c2cc(NC(=O)[C@H]3[C@H](c4cc(Cl)c(Cl)c(Cl)c4)C3(Cl)Cl)ccc2Cl)c1F [F1515, N-(3-Acetamido-2,6-difluorophenyl)-2-chloro-5-((1R,3R)-2,2-dichloro-3-(3,4,5-trichlorophenyl)cyclopropane-1-carboxamido)benzamide]	50 to 100%	50 to 100%
O=C(Nc1c(F)ccc(NC(=O)C(F)(F)F)c1F)c1cc(NC(=O)[C@H]2[C@H](c3cc(Cl)c(Cl)c(Cl)c3)C2(Cl)Cl)ccc1Cl [F1516, 2-Chloro-5-((1R,3R)-2,2-dichloro-3-(3,4,5-trichlorophenyl)cyclopropane-1-carboxamido)-N-(2,6-difluoro-3-(2,2,2-trifluoroacetamido)phenyl)benzamide]	50 to 100%	50 to 100%
CC(=O)Nc1cc(NC(=O)c2cc(NC(=O)[C@H]3[C@H](c4cc(Cl)c(Cl)c(Cl)c4)C3(Cl)Cl)ccc2Cl)c(F)cc1F [F1517, N-(5-Acetamido-2,4-difluorophenyl)-2-chloro-5-((1R,3R)-2,2-dichloro-3-(3,4,5-trichlorophenyl)cyclopropane-1-carboxamido)benzamide]	50 to 100%	50 to 100%
O=C(Nc1cc(NC(=O)C(F)F)c(F)cc1F)c1cc(NC(=O)[C@H]2[C@H](c3cc(Cl)c(Cl)c(Cl)c3)C2(Cl)Cl)ccc1Cl [F1518, 2-Chloro-5-((1R,3R)-2,2-dichloro-3-(3,4,5-trichlorophenyl)cyclopropane-1-carboxamido)-N-(5-(2,2-difluoroacetamido)-2,4-difluorophenyl)benzamide]	50 to 100%	50 to 100%
O=C(Nc1cc(NC(=O)C(F)(F)F)c(F)cc1F)c1cc(NC(=O)[C@H]2[C@H](c3cc(Cl)c(Cl)c(Cl)c3)C2(Cl)Cl)ccc1Cl [F1519, 2-Chloro-5-((1R,3R)-2,2-dichloro-3-(3,4,5-trichlorophenyl)cyclopropane-1-carboxamido)-N-(2,4-difluoro-5-(2,2,2-trifluoroacetamido)phenyl)benzamide]	50 to 100%	50 to 100%
CC(=O)Nc1ccc(F)c(NC(=O)c2cc(NC(=O)[C@H]3[C@H](c4cc(Cl)c(Cl)c(Cl)c4)C3(Cl)Cl)cc(F)c2Cl)c1F [F1520, N-(3-Acetamido-2,6-difluorophenyl)-2-chloro-5-((1R,3R)-2,2-dichloro-3-(3,4,5-trichlorophenyl)cyclopropane-1-carboxamido)-3-fluorobenzamide]	50 to 100%	50 to 100%
CC(=O)Nc1ccc(F)c(NC(=O)c2cc(NC(=O)[C@H]3[C@H](c4ccc(Cl)c(Cl)c4)C3(Cl)Cl)cc(F)c2Cl)c1F [F1522, N-(3-Acetamido-2,6-difluorophenyl)-2-chloro-5-((1R,3R)-2,2-dichloro-3-(3,4-dichlorophenyl)cyclopropane-1-carboxamido)-3-fluorobenzamide]	50 to 100%	50 to 100%
CC(=O)Nc1ccc(F)c(NC(=O)c2cc(NC(=O)[C@H]3[C@H](c4ccc(Cl)c(Cl)c4)C3(Cl)Cl)cc(C)c2Cl)c1F [F1523, N-(3-Acetamido-2,6-difluorophenyl)-2-chloro-5-((1R,3R)-2,2-dichloro-3-(3,4-dichlorophenyl)cyclopropane-1-carboxamido)-3-methylbenzamide]	50 to 100%	50 to 100%
CC(=O)Nc1ccc(F)c(NC(=O)c2cc(NC(=O)[C@H]3[C@H](c4cc(Cl)c(Cl)c(Cl)c4)C3(Cl)Cl)cc(C)c2Cl)c1F [F1524, N-(3-Acetamido-2,6-difluorophenyl)-2-chloro-5-((1R,3R)-2,2-dichloro-3-(3,4,5-trichlorophenyl)cyclopropane-1-carboxamido)-3-methylbenzamide]	50 to 100%	50 to 100%
CC(=O)Nc1ccc(F)c(NC(=O)c2cc(NC(=O)[C@H]3[C@H](c4ccc(F)c(C(F)(F)F)c4)C3(Cl)Cl)cc(C)c2Cl)c1F [F1525, N-(3-Acetamido-2,6-difluorophenyl)-2-chloro-5-((1R,3R)-2,2-dichloro-3-(4-fluoro-3-(trifluoromethyl)phenyl)cyclopropane-1-carboxamido)-3-methylbenzamide]	50 to 100%	50 to 100%
O=C(Nc1ccc(F)c(NC(=O)C(F)F)c1F)c1cc(NC(=O)[C@H]2[C@H](c3cc(Cl)c(Cl)c(Cl)c3)C2(Cl)Cl)ccc1F [F1527, 5-((1R,3R)-2,2-Dichloro-3-(3,4,5-trichlorophenyl)cyclopropane-1-carboxamido)-N-(3-(2,2-difluoroacetamido)-2,4-difluorophenyl)-2-fluorobenzamide]	50 to 100%	50 to 100%
CC(=O)Nc1c(F)ccc(NC(=O)c2cc(NC(=O)[C@H]3[C@H](c4cc(Cl)c(Cl)c(Cl)c4)C3(Cl)Cl)ccc2Cl)c1F [F1532, N-(3-Acetamido-2,4-difluorophenyl)-2-chloro-5-((1R,3R)-2,2-dichloro-3-(3,4,5-trichlorophenyl)cyclopropane-1-carboxamido)benzamide]	50 to 100%	50 to 100%
O=C(Nc1ccc(F)c(NC(=O)C(F)(F)F)c1F)c1cc(NC(=O)[C@H]2[C@H](c3cc(Cl)c(Cl)c(Cl)c3)C2(Cl)Cl)ccc1Cl [F1533, 2-Chloro-5-((1R,3R)-2,2-dichloro-3-(3,4,5-trichlorophenyl)cyclopropane-1-carboxamido)-N-(2,4-difluoro-3-(2,2,2-trifluoroacetamido)phenyl)benzamide]	50 to 100%	50 to 100%
